According to patent US20150374709A1, “TETRA-SUBSTITUTED NDGA DERIVATIVES VIA ETHER BONDS AND CARBAMATE BONDS AND THEIR SYNTHESIS AND PHARMACEUTICAL USE” (ERIMOS PHARMACEUTICALS LLC, priority 2006, published 2015):

Tested on: A549 (lung carcinoma)
Assay: MTS cell viability assay, A549
Assay type: cell-based
Settings: Homo sapiens, A549; MTS assay; read-out: A549 IC50
Description: Studies performed regarding cytotoxicity included the well-known MTS, Trypan Blue and MTT protocols. The MTS studies were done using the CellTiter 96®AQueous One Solution Cell Proliferation Assay (Promega Corporation, Madison, Wis. USA). Metabolically active, namely viable, cells turn MTS, a tetrazolium compound (3-(4,5-dimethylthiazol-2-yl)-5-(3-carboxymethoxyphenyl)-2-(4-sulfophenyl)-2H-tetrazolium, inner salt) into colored formazan, which is soluble in tissue culture medium. The measurement of the absorbance of the formazan is read at 490 nm. The ready to use reagent is added directly to the cells in media in 96-well plates, incubated 1-4 hours and the results are recorded by the plate reader. The IC50 is estimated by graphing the gathered data. The IC50 is the concentration of the tested material that inhibits 50% of growth or viability of the tested material compared to a control.
Three cell lines obtained from ATCC and maintained as directed by ATCC were tested: HeLa (cervical adenocarcinoma), A549 (lung carcinoma), and COS-7 (SV40 transformed monkey kidney). Studies of these cell lines are considered to be indicative of the effect of tested substances on mammalian, including human, diseases.
All compounds were dissolved in DMSO and DMSO is used as the placebo. The samples were first dissolved into 10 mM dilutions in DMSO and then diluted further to 5, 1, 0.5, 0.1, 0.05, and 0.01 mM solutions. These solutions were added to the media at a 1% concentration (1 μl to 100 μl media) to treat the cells with 100, 50, 10, 5, 1, 0.5, and 0.1 μM of the compound. […] Solutions were checked before use for precipitation, especially the 10 mM solutions. If there was precipitation, they were warmed 65° C. and added to warmed media.
Wells on a 96-well plate were seeded with 1.5-8×10^4 cells in 100 μl media and incubated overnight. The outside wells of the plate were filled with 200 μl sterile, deionized (DI) water to curb media evaporation. After 24 hours, test chemicals were prepared in media at a concentration of 1% media volume. The test sample media were added, mixing with pipette before adding 100 μl per well. Media was added to the “Media Only” wells. The well plate and its contents were incubated for 24-72 hours, depending on the study conducted. On the thy of the MTS assay, the MTS reagent was removed from the refrigerator and brought to room temperature. Using the multichannel pipette, 20 μl of the MTS reagent was added to each well and incubated for one to four hours. The plate was read at 490 nm with a reference wavelength of 690 nm after one hour in the incubator thereafter until the blank wells were at about 0.2 OD. The results were then scanned into a Microsoft® Excel® template designed to perform all necessary calculations whim data are entered. The data were checked for statistical errors; data points that are within 10% of the mean of the data points for that group were included. The average of the blanks (“Media Only”) were subtracted and the data were inserted into a chart that represents growth response, treated/untreated.

## C[C@H](Cc1ccc(OCCCN2CCCCC2)c(OCCCN2CCCCC2)c1)[C@@H](C)Cc1ccc(OCCCN2CCCCC2)c(OCCCN2CCCCC2)c1 [Compound A, 1,4-bis{3,4-bis[3-(piperidin-1-yl)propoxy]phenyl}-2,3-dimethyl-(2R,3S)-butane]
  IC50: 800 to 900 nM
